The values below are quoted from earlier work in the CATMoS acute toxicity set (Mansouri et al. 2021).

Values joined by “and” are separate entries in the source; they are usually repeats but may differ in a detail not shown here. Identical values can stand only once.

This data set in a line: rat acute oral toxicity. The settings on record: in vivo. The text has this: […]The data set underlying the modeling effort for this project was initially compiled by NICEATM and U.S. EPA’s CCTE. Briefly, LD50 data were collected from rat acute oral systemic toxicity tests, including limit tests, ranges/confidence intervals, and discrete LD50 values. The full data set included 21,200 LD50 entries for 15,688 substances. […] Data were reviewed to ensure that LD50 values with obvious errors in the extracted data such as unit conversion errors (e.g., comma and decimal separator misplacements) were either fixed or removed. After this review, 16,209 LD50 values remained. Many of the chemicals represented had multiple LD50 entries, requiring that a single representative value per Chemical Abstracts Service Registry Number (CASRN) identifier be defined to facilitate modeling efforts. Based on ATWG feedback and to define the representative LD50 as a protective value while accounting for the distribution across multiple LD50s, the median of the lowest quartile was computed using only discrete LD50 values (omitting limit test data and range and confidence interval data). A detailed summary of the data compilation is available online on the NICEATM webpage dedicated to the collaborative modeling project (NTP 2020).
[…][…] For categorical designations, limit test and range/confidence interval LD50 data were integrated wherever possible. As such, the number of chemicals with end point values/calls varies across the modeling end points (Table 3) based on whether chemicals had representative LD50 values and/or other data. If a chemical had both, the representative value was used to determine categorical calls rather than limit test data. Some data were useable only for certain end points and categories depending on the thresholds. For example, ranges that spanned multiple hazard categories were considered only for the binary (very toxic/nontoxic) end points and omitted from rendering a determination for hazard category assignment.
[…]The final data set comprising 11,992 chemicals was split into training and evaluation sets […], respectively. This process was performed semirandomly by ordering chemicals based on the five end points (categorical and continuous LD50 values) and partitioning every fourth record into the evaluation set accordingly. This approach was taken to ensure an equivalent distribution of the LD50 values and the different hazard categories between the training and the evaluation sets without supervised sampling of the chemicals based on structures (Figure 1A). The sources of the chemical structures were also kept equivalent between the two sets, with chemical structures obtained from DSSTox, being the highest quality, representing over 75% of each set (Figure 1B).
In the case of `N=C(S)NN=Nc1ccc(Cl)c(Cl)c1`, the LD50 – broadly, the dose expected to kill half of the subjects tested – was 1 mg/kg.

For `O=C(Nc1cccc(Cl)c1)OCC#CCCl`, the 50% lethal dose (LD50) was 527 mg/kg.

In the case of `O=C1NC(CCCl)Oc2ccccc21` (stereo unspecified), the LD50 is 10000 mg/kg.

With `O=C(c1ccc(Cl)cc1)n1cc(Cc2nn[nH]n2)c2ccccc21`, the 50% lethal dose (LD50) is 1200 mg/kg.

In the case of `CNCCC=C1c2ccccc2CCc2ccccc21`, the median lethal dose (LD50) is 502 mg/kg and 405 mg/kg.

As to `Cc1c(Cl)c(Br)c(Cl)c2[nH]c(C(F)(F)F)nc12`, the median lethal dose (LD50) was 18.3 mg/kg.

As to `CCOP(=S)(OCC)N1C(=O)c2ccccc2C1=O`, the 50% lethal dose (LD50) was 4930 mg/kg.

Consider `O=C(O)Cc1sc(-c2ccccc2)nc1-c1ccc(Cl)cc1`, for which the LD50 was 409 mg/kg.

With `Cc1c(O)cccc1O`, the LD50 is 200 mg/kg.

With `CCN(N=O)C(=O)NC(N)=O`, the LD50 is 1050 mg/kg.

For `CCOC(=O)Nc1ccc2c(c1)N(C(=O)CCN(CC)CC)c1ccccc1CC2`, the LD50 is 138 mg/kg.

Consider `CNCCC#N`, for which the LD50 was 2260 mg/kg.

In the case of `O=C(O)C1C2CCC(O2)C1C(=O)O` (stereo unspecified), the LD50 was 51 mg/kg.

Regarding `CC(C)OP(=S)(OC(C)C)SCn1nc(-c2ccccc2)ccc1=O`, the LD50 is 25000 mg/kg.

Take `COCCCOCC(C)OCCCOC(=O)c1ccccc1` (stereo unspecified): the LD50 was 5480 mg/kg.

As to `CN(C)CCCOC1(Cc2ccccc2)CCCCCC1`, the LD50 is 414 mg/kg.

As to `CCC1(C(C)CC(C)C)C(=O)NC(=O)NC1=O` (stereo unspecified), the LD50 is 75 mg/kg.

Consider `CCC(C)C(C(=O)OC1CC[N+](C)(C)CC1)c1ccccc1` (stereo unspecified), for which the LD50 was 720 mg/kg.

As for `CC(C)CCI`, the median lethal dose (LD50) is 1420 mg/kg.

Regarding `C=CC1(C)CCC(C(C)(C)O)O1` (stereo unspecified), the LD50 was 1150 mg/kg.

For the compound `BrC12CC3CC(CC(C3)C1)C2`, the LD50 was 8470 mg/kg.

As for `C#CCOc1ccc(N)cc1C(=O)NCCCC`, the LD50 is 864 mg/kg.

As to `CC(=O)c1ccc(N)cc1`, the LD50 was 381 mg/kg.

In the case of `CCCCCCCCS(=O)CCCCl` (stereo unspecified), the LD50 is 5660 mg/kg.

As to `CCCCSC(=O)Oc1c(C(C)CC)cc([N+](=O)[O-])cc1[N+](=O)[O-]` (stereo unspecified), the LD50 is 147 mg/kg.

Regarding `CN1CCN(c2cc3c(nn2)Oc2ccccc2N3C)CC1`, the median lethal dose (LD50) is 1000 mg/kg.

For the compound `CCOC(=O)C(NCCNC(C(=O)OCC)c1ccccc1O)c1ccccc1O` (stereo unspecified), the LD50 was 800 mg/kg.

With `c1cc2c(c(NC3=NCCN3)c1)CCC2`, the 50% lethal dose (LD50) is 481 mg/kg.

Consider `O=S(=O)(c1ccccc1)c1ccccc1`, for which the 50% lethal dose (LD50) was 300 mg/kg.

Consider `O=[N+]([O-])c1ccc(O)c(CNCCCl)c1`, for which the LD50 is 25 mg/kg.

With `BrC(Br)(Br)c1ccc2ccccc2n1`, the LD50 is 6770 mg/kg.

Regarding `COc1cc2c(cc1OC)C1CC(=O)C(CCC#N)CN1CC2` (stereo unspecified), the LD50 was 620 mg/kg.

In the case of `CCCCN1CCCC1=Nc1ccc(Cl)c(Cl)c1`, the LD50 was 3050 mg/kg.

As to `NC(=O)CBr`, the LD50 is 100 mg/kg.

For the compound `Cc1nc2n(c(=O)c1CCN1CCC(c3noc4cc(F)ccc34)CC1)CCC[C@H]2O`, the LD50 is 65 mg/kg.

As to `CCCCCCCCCCCCN(CCC(=O)O)CCC(=O)O`, the LD50 was 31300 mg/kg.

Consider `CN1C(C(=O)Nc2ccccn2)=C(OC(=O)C(C)(C)C)c2sc(Cl)cc2S1(=O)=O`, for which the 50% lethal dose (LD50) was 24.6 mg/kg.

With `Cc1c(F)c(N2CCNC(C)C2)cc2c1c(=O)c(C(=O)O)cn2C1CC1` (stereo unspecified), the LD50 was 3030 mg/kg.

Consider `Cc1cc(C(C)(C)C)c(O)c(C)c1CC1=NCCN1`, for which the LD50 is 0.8 mg/kg and 0.68 mg/kg.

On to `COC(=O)c1cccc(C)c1O`, for which the 50% lethal dose (LD50) is 3840 mg/kg.

With `Cc1[nH]nc(Cl)c1[N+](=O)[O-]`, the 50% lethal dose (LD50) is 350 mg/kg.

Consider `O=C1CNC(=S)N1`, for which the LD50 was 420 mg/kg.

`Cn1c(=O)c2c(ncn2CCCCCN2CCN(c3ccc(Cl)cc3)CC2)n(C)c1=O`: the LD50 is 353 mg/kg.

Turning to `O=C(NN=C1C=CC(=NO)C=C1)c1ccccc1`, the LD50 is 100 mg/kg.

Consider `C[C@]12CCC(=O)C=C1CC[C@@H]1[C@@H]2CC[C@@]2(C)[C@H]1CC[C@]2(C)O`, for which the LD50 is 2500 mg/kg.

As to `CCC1OC(C)C(=NOC(=O)NC)S1` (stereo unspecified), the 50% lethal dose (LD50) is 8 mg/kg.

For the compound `Cc1ccc(S(=O)(=O)NC(=O)NN2CC3CCCC3C2)cc1` (stereo unspecified), the 50% lethal dose (LD50) is 3000 mg/kg.

For `CC(C)[C@@]1(O)[C@@H](OC(=O)c2ccc[nH]2)[C@@]2(O)[C@@]3(C)C[C@]4(O)O[C@@]5([C@H](O)[C@@H](C)CC[C@]35O)[C@@]2(O)[C@@]14C`, the median lethal dose (LD50) was 750 mg/kg.

`C=C(C)C(=O)OCCN(CC)CC`: the LD50 was 4700 mg/kg.

In the case of `Nc1nc(N)nc(NC2CC2)n1`, the LD50 is 3390 mg/kg.

For the compound `CCCCNC(=S)NCCCC`, the LD50 is 350 mg/kg.
